# Biological target: T1, Thermotoga-derived CysRS (Thermotoga maritima, UniProt Q9WZH8)
# T1 construct: The amplification products were each inserted into pET-28a to obtain plasmids for expression of respective AARSs; His tag (C); made in house; host or cells: Escherichia coli BL21 (DE3)
# T1 sequence (Q9WZH8 1-460): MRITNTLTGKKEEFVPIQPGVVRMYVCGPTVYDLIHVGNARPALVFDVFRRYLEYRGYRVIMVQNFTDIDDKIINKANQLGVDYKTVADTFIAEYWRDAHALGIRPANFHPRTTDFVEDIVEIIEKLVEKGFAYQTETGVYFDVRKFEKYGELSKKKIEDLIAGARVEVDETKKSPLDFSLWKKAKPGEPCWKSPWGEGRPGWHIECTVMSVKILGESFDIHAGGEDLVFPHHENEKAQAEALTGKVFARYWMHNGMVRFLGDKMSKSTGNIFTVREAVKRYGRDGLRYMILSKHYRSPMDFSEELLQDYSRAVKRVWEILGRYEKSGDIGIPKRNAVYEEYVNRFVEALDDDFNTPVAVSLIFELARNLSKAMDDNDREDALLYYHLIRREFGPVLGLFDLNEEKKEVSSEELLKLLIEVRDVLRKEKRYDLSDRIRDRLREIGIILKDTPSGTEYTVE
# Experiment: Qualitative test of AARS substrate specificity (molybdenum blue method)
# Format: biochemical, Thermotoga maritima MSB8 strain
# Parameters: key: +: Activity was detected; −: Activity was not detected
# Details: Tyr 1 mM, other amino acids 5 mM; hydroxylamine 1000 mM; CysRS 0.3 mg/ml (8 mU/ml); 30° C.
row,Compound,"Detection of the activity (pyrophosphate generation), CysRS"
1,"C[C@H](N)C(=O)O [Ala, L-alanine]",−
2,"N=C(N)NCCC[C@H](N)C(=O)O [Arg, L-arginine]",−
3,"NC(=O)C[C@H](N)C(=O)O [Asn, L-asparagine]",−
4,"N[C@@H](CC(=O)O)C(=O)O [Asp, L-aspartic acid]",−
5,"N[C@@H](CS)C(=O)O [Cys, L-cysteine]",+
6,"NC(=O)CC[C@H](N)C(=O)O [Gln, L-glutamine]",−
7,"N[C@@H](CCC(=O)O)C(=O)O [Glu, L-glutamic acid]",−
8,"NCC(=O)O [Gly, glycine]",−
9,"N[C@@H](Cc1c[nH]cn1)C(=O)O [His, L-histidine]",−
10,"CC[C@H](C)[C@H](N)C(=O)O [Ile, L-isoleucine]",−
11,"CC(C)C[C@H](N)C(=O)O [Leu, L-leucine]",−
12,"NCCCC[C@H](N)C(=O)O [Lys, L-lysine]",−
13,"CSCC[C@H](N)C(=O)O [Met, L-methionine]",−
14,"N[C@@H](Cc1ccccc1)C(=O)O [Phe, L-phenylalanine]",−
15,"O=C(O)[C@@H]1CCCN1 [Pro, L-proline]",−
16,"N[C@@H](CO)C(=O)O [Ser, L-serine]",−
17,"C[C@@H](O)[C@H](N)C(=O)O [Thr, L-threonine]",−
18,"N[C@@H](Cc1c[nH]c2ccccc12)C(=O)O [Trp, L-tryptophan]",−
19,"N[C@@H](Cc1ccc(O)cc1)C(=O)O [Tyr, L-tyrosine]",−
20,"CC(C)[C@H](N)C(=O)O [Val, L-valine]",−
